Where “and” joins values, the source holds several entries; their conditions need not be identical. Equal values may be shown once. Marks after values point to notes of the source that are not given here.
What was measured:
[1] = tested on: acid accumulation in the hind gut; experiment: Acidic gut syndrome in pigs fed HGF diet: digesta/faecal pH and faecal consistency; assay type: in vivo, pig
Description: Pigs were weaned at 4 weeks of age and housed individually in pens with concrete floors with weld mesh dividing walls in temperature controlled facilities. The pens were cleaned twice per day and drinking water was provided by an automatic watering system. All animals were handled daily to acclimatise them to experimental procedures associated with sampling.
Piglets were fed ad libitum on the basal diet for two weeks until commencement of dietary treatments. The diets were formulated to ensure balanced provisions of nutrients for growth and contained 67.5% carbohydrate (rice, cornflour and raftilose) and 32.5% protein mix. The protein mix contained 55% meat meal, 32% fishmeal, 6% casein and 6% vitamins, oil and synthetic amino acids. The proportion of total carbohydrates contributed by rice, corn flour and raftilose on each day of the study is shown in Table 1 together with the total amount offered per pig.
1. Daily collection of faeces from the pens of each pig to assess faecal consistency and for measurement of pH. Faecal consistency was assessed on a scale 1 to 5 with 1 being liquid diarrhoea and 5 being dry, separate, well formed faeces.
(§1) 7. On day 7, half of the pigs in each treatment group were euthanased with pentobarbitone. Post mortem measurements were made of size of the digestive tract, the pH of diqesta in different part of the tract and the digestive tract and other organs were examined for any sign of abnormal tissue appearance. On day 8 the remaining pigs were euthanased and the same post mortem measurements made on these animals.

Caecal Lactobacilli = experiment: Pigs fed HGF diet: caecal Lactobacilli count; assay type: in vivo; settings: HGF diet with 25 mg virginiamycin/kg DM
Description: (§2) Studies of rapid carbohydrate fermentation and acid build up in the hind gut of sheep and horses have shown that the concentration of volatile fatty acids (VFA) starts to increase and pH starts to drop before there is a proliferation of gram positive bacteria (particularly Streptococcus bovis and Lactobacilli) capable of producing lactic-acid. Lactic acid is a stronger acid than the VFA and is not absorbed from the caecum as quickly as VFA, and this combination of factors leads to low pH which is the first step in development of acidic gut syndrome. Virginiamycin was included in the diet of one of the two dietary treatments containing raftilose and high-maize starch to investigate its effectiveness in controlling lactic acid accumulation and hind gut pH as a potential method for preventing or controlling acidic gut syndrome.
as §1

Caecal Strep. Bovis = experiment: Pigs fed HGF diet: caecal Strep. bovis count; assay type: in vivo, Streptococcus bovis; settings: HGF diet with 25 mg virginiamycin/kg DM
Description: as §2, §1

[2] = tested on: immune system (neutrophils, lymphocytes, acute phase protein, IL-1); experiment: Pigs fed HGF diet: changes in immune system (white blood cells, acute phase protein, IL-1); assay type: in vivo, pig; settings: HGF diet with 25 mg virginiamycin/kg DM
[3] = Pigs fed HGF diet: feed intake, weight change, weight of washed gut; assay type: in vivo, pig
Procedure: 3. Body weights were measured 2 days before the start of feeding experimental diets, on day 3 and day 7.
5. The amount of feed not consumed was measured each afternoon and intake calculated as a % of amount offered.
as §1

[4] = tested on: fermentative acidosis in the rumen and hind gut; experiment: Sheep overfed high-barley pellets: rumen and faecal pH, lactate, rumen VFA; assay type: in vivo
Description: (§3) Six full mouth cannulated cross-bred sheep, weighing approximately 45 kg were used in the trial. These sheep were housed in individual pens on a wood grating floor in an enclosed animal house. All sheep were fed once per day, and water was available at all times ad libitum. All sheep were fed a basal diet consisting of oaten chaff plus 1% urea and 1% mineral pre-mix (Pfizer Animal Health Pty. Ltd.). At time 0 in the experiment, all sheep were fed a pellet containing high levels of barley with or without virginiamycin (VM). The sheep were autopsied 48 hours after grain feeding.
(§4) All sheep were offered 1000 g of a pellet containing 76% barley, 17% lucerne, 3.5% cottonseed meal, 1% urea and 1.5% limestone at the start of the experiment. The sheep were then offered another 1000 g of the pellet 12 hours later. All sheep consumed all of the pelleted feed offered. Half of the sheep received the pellets with no dietary additives, and the other half received the pellets with virginiamycin (VM) added at 30 mg/kg. Eskalin (Pfizer Animal Health Pty. Ltd., 20 g virginiamycin/kg) was included at 1.5 g/kg pellets to provide 30 mg VM/kg in the mixed diet. The animals were monitored closely after receiving grain and autopsied 48 hours after initial grain feeding.
(§5) All sheep were fitted with faecal collection bags, which consisted of a PVC ring attached to the posterior of the sheep to which a plastic bag was attached in order to collect total faecal output. Rumen fluid was taken via the rumen fistula. Rumen and faecal samples were taken at 4 hourly intervals for the first 12 hours after grain feeding. Samples were then taken at 24, 36 and 48 hours after initial feeding.
Rumen fluid pH was analysed immediately using a portable pH meter (‘Piccolo 2’ ATC pH meter by Hanna Instruments). A sample was also added to a 20 mL McCartney bottle containing approximately 7 μL of concentrated H2SO4, and frozen for later analysis of lactic and volatile fatty acids.
(§6) A representative 20 g sample of faeces was taken into a small vial, an equal volume of water added and mixed well. The faecal pH was then measured immediately on this sample as for rumen fluid. A further sample was placed in a sterile container and an equal weight of deionised water added to it. This was mixed well using a sterile spatula, and then centrifuged at 15000 rpm for 20 mins. The supernatant was then transferred using a sterile pipette to 3 individual microfuge tubes and frozen for later analysis for TNF-α. TNF-α was measured in the faeces using an ELISA method.

TNF-α = experiment: Sheep overfed high-barley pellets: faecal TNF-α by ELISA; assay type: in vivo; settings: VM 30 mg/kg pellets; for Faecal TNF-α concentration, individual sheep: sheep 2, 4, 6, listed as VM
Description: as §3, §4, §5, §6

[5] = tested on: acid accumulation in the hind gut; experiment: Acidic gut syndrome in pigs fed HGF diet: digesta/faecal pH and faecal consistency; assay type: in vivo, pig; settings: HGF diet with 25 mg virginiamycin/kg DM, post mortem
[6] = pigs on HGF diet, 25 mg virginiamycin/kg DM
[7] = weaner pigs, HGF diet with 25 mg virginiamycin/kg dietary DM, post mortem
[8] = pigs, post mortem, HGF diet with 25 mg virginiamycin/kg DM
[9] = proportion mmol/100 mmol, sheep, VM 30 mg/kg
[10] = sheep fed high grain pellets, VM 30 mg/kg
[11] = sheep overfed grain, VM 30 mg/kg pellets
[12] = sheep overfed grain, VM 30 mg/kg, 36 and 48 hour samples
[13] = sheep, VM 30 mg/kg versus no additive

virginiamycin
pH in different parts of the digestive tract (FIG. 6, words) ([1]; pigs fed HGF diet with or without virginiamycin): consistent effect in reducing acid accumulation (increasing pH) in all parts of the digestive tract
Acid accumulation in the hind gut and in faeces [1, 6]: effective in reducing the extent of acid accumulation
Effect on faecal consistency [1, 6]: significantly improved faecal consistency
Ileal pH ([1]; pigs, HGF diet with 25 mg virginiamycin/kg DM, post mortem): 6.3
Faecal consistency (av d1-5) ([1]; scale 1 to 5, 1 liquid diarrhoea, 5 dry well formed faeces, pigs, HGF diet with 25 mg virginiamycin/kg DM): 3.53^c
Average faecal pH ([1]; weaner pigs, HGF diet with 25 mg virginiamycin/kg DM): 6.0^b
Faecal pH (day 2) ([1]; weaner pigs, HGF diet with 25 mg virginiamycin/kg DM, day 2): 6.3^b
Faecal pH (day 5) ([1]; weaner pigs, HGF diet with 25 mg virginiamycin/kg DM, day 5): 6.0^b
Caecal pH [1, 7]: 5.7^ab
Rectal pH [1, 7]: 6.3^b
Caecal Lactobacilli (Caecal Lactobacilli): 1.4 × 10^10
Caecal Strep. Bovis (Caecal Strep. Bovis): 3.2 × 10^9
Acute phase protein CD3 [2]: 5.9
IL-1 (av. days 1, 2, 5 & 8) [2]: 1.6
IL-1 (day 5) ([2]; day 5): 2.0
Lymphocytes (L) ([2]; jugular blood): 11.0
N:L ratio ([2]; neutrophil to lymphocyte ratio): 0.57a
Feed intake versus HGF diet alone ([3]; pigs on HGF diet treated with virginiamycin): higher intake
Weight change (days 3 to 7) ([3]; pigs, HGF diet with 25 mg virginiamycin/kg DM): 1.13
Intake (% offered) (day 4) ([3]; pigs, HGF diet with 25 mg virginiamycin/kg DM, day 4): 81^ab % offered
Av intake (days 1 to 8) ([3]; pigs, HGF diet with 25 mg virginiamycin/kg DM, intake calculated as % of amount offered): 83^ab
Weight of washed gut (g): Caecum [3, 8]: 31.4^a g
Weight of washed gut (g): Rectum [3, 8]: 35.1 g
Weight of washed gut (g): Stomach [3, 8]: 115 g
Rumen Ac (%) [4, 9]: 50.941%
Rumen But (%) [4, 9]: 8.75%
Rumen Pr (%) [4, 9]: 34.36%
Ratio of Propionate to Acetate+(2×Butyrate) ([4]; rumen, sheep fed VM versus no additive): significantly higher
Rumen D-Lactic acid [4, 10]: 25.12 mmol/L
Rumen L-Lactic acid [4, 10]: 7.33 mmol/L
Rumen total VFA [4, 10]: 81.80 mmol/L
Average faecal pH [4, 11]: 7.28
Average rumen pH [4, 11]: 5.84
Faecal D-lactate [4, 12]: 7.43
Faecal L-lactate [4, 12]: 28.2
Difference in rumen or faecal pH between treatment groups [4, 13]: no differences
Treatment effect on rumen lactic acid concentration [4, 13]: No treatment effects
pH in different parts of the digestive tract (FIG. 8, words) ([4]; sheep, high-barley pellets with or without virginiamycin, autopsy at 48 hours): consistent effect in reducing acid accumulation (increasing pH) in all parts of the digestive tract
Faecal TNF-α concentration, group average (TNF-α; experimental hour 0): 12333
Faecal TNF-α concentration, individual sheep (TNF-α; experimental hour 0): 9000 and 16000 and 12000
Faecal TNF-α concentration, group average (TNF-α; experimental hour 24): 17667
Faecal TNF-α concentration, individual sheep (TNF-α; experimental hour 24): 12000 and 24000 and 17000
Faecal TNF-α concentration, group average (TNF-α; experimental hour 36): 62444
Faecal TNF-α concentration, individual sheep (TNF-α; experimental hour 36): 98333 and 64000 and 25000
Faecal TNF-α concentration, group average (TNF-α; experimental hour 48): 124222
Faecal TNF-α concentration, individual sheep (TNF-α; experimental hour 48): 230667 and 66000 and 76000
Stomach pH (days 8/9) [5]: 3.6
